Measured values published in PubChem BioAssay AID1963978 (Molecular Pharmacology Branch, DTP, NCI, 2024).
pIC50: −log10 of the molar value.

Test system: 616215-338-R-J1-PDC spheroids with HUVEC/MSC, viability
Assay: Anticancer human tumor 616215-338-R-J1-PDC patient-derived colon adenocarcinoma cell line growth inhibition [PI3K]
Settings: for pIC50: curve of first compound; for viability, T/C: stronger effect = lower value
Summary of the method: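 Targeted small molecules plus PI3K inhibitors, half-log dose series from Cmax (default top 10 microM), were applied to heterotypic spheroids of cancer cells with HUVEC and MSCs. Viability indicated growth inhibition.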

[1] = second compound 0.00316 µM, first compound 0.0316 µM
[2] = second compound 0.00316 µM, first compound 0.1 µM
[3] = second compound 0.00316 µM, first compound 0.316 µM
[4] = second compound 0.00316 µM, first compound 1 µM
[5] = second compound 0.00316 µM, first compound 3.16 µM
[6] = second compound 0.00316 µM, first compound 10 µM
[7] = second compound 0.01 µM, first compound 0.0316 µM
[8] = second compound 0.01 µM, first compound 0.1 µM
[9] = second compound 0.01 µM, first compound 0.316 µM
[10] = second compound 0.01 µM, first compound 1 µM
[11] = second compound 0.01 µM, first compound 3.16 µM
[12] = second compound 0.01 µM, first compound 10 µM
[13] = second compound 0.0316 µM, first compound 0.0316 µM
[14] = second compound 0.0316 µM, first compound 0.1 µM
[15] = second compound 0.0316 µM, first compound 0.316 µM
[16] = second compound 0.0316 µM, first compound 1 µM
[17] = second compound 0.0316 µM, first compound 3.16 µM
[18] = second compound 0.0316 µM, first compound 10 µM
[19] = second compound 0.1 µM, first compound 0.0316 µM
[20] = second compound 0.1 µM, first compound 0.1 µM
[21] = second compound 0.1 µM, first compound 0.316 µM
[22] = second compound 0.1 µM, first compound 1 µM
[23] = second compound 0.1 µM, first compound 3.16 µM
[24] = second compound 0.1 µM, first compound 10 µM
[25] = second compound 0.316 µM, first compound 0.0316 µM
[26] = second compound 0.316 µM, first compound 0.1 µM
[27] = second compound 0.316 µM, first compound 0.316 µM
[28] = second compound 0.316 µM, first compound 1 µM
[29] = second compound 0.316 µM, first compound 3.16 µM
[30] = second compound 0.316 µM, first compound 10 µM
[31] = second compound 1 µM, first compound 0.0316 µM
[32] = second compound 1 µM, first compound 0.1 µM
[33] = second compound 1 µM, first compound 0.316 µM
[34] = second compound 1 µM, first compound 1 µM
[35] = second compound 1 µM, first compound 3.16 µM
[36] = second compound 1 µM, first compound 10 µM
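Further: spheroids exposed to agents for seven days before the viability read.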

With `C=CC(=O)N1CCN(c2nc(=O)n(-c3c(C)ccnc3C(C)C)c3nc(-c4c(O)cccc4F)c(F)cc23)C(C)C1` (centres undefined) + COc1c(OCCCN2CCOCC2)ccc2c3n(c(=NC(=O)c4cnc(N)nc4)nc12)CCN3 the pIC50 (second compound 0.00316 µM) was < 5.00, the pIC50 (second compound 0.01 µM) was < 5.00 and the pIC50 (second compound 0.0316 µM) was < 5.00. For the same compound, the pIC50 (second compound 0.1 µM) was < 5.00, the pIC50 (second compound 0.316 µM) was > 7.50 and the pIC50 (second compound 1 µM) was > 7.50. It also gave a viability, T/C [1] of 90.8%, a viability, T/C [2] of 87.9% and a viability, T/C [3] of 92.2%. For the same compound, the viability, T/C [4] was 96.6%, the viability, T/C [5] was 95.2% and the viability, T/C [6] was 80.1%. It also gave a viability, T/C [7] of 110%, a viability, T/C [8] of 92.2% and a viability, T/C [9] of 97.8%. It also gave a viability, T/C [10] of 101%, a viability, T/C [11] of 111% and a viability, T/C [12] of 78%. For the same compound, the viability, T/C [13] was 106%, the viability, T/C [14] was 85.9% and the viability, T/C [15] was 99.5%. For the same compound, the viability, T/C [16] was 110%, the viability, T/C [17] was 87.8% and the viability, T/C [18] was 76.2%. It also gave a viability, T/C [19] of 91.7%, a viability, T/C [20] of 96.8% and a viability, T/C [21] of 93.4%. The viability, T/C [22] was 98.9%, the viability, T/C [23] was 90.2% and the viability, T/C [24] was 71.7%. The viability, T/C [25] was 52.7%, the viability, T/C [26] was 36.7% and the viability, T/C [27] was 46.1%. The viability, T/C [28] was 47.1%, the viability, T/C [29] was 47.1% and the viability, T/C [30] was 36.6%. The viability, T/C [31] was 23.4%, the viability, T/C [32] was 23.2% and the viability, T/C [33] was 29.8%. For the same compound, the viability, T/C [34] was 24.4%, the viability, T/C [35] was 25.4% and the viability, T/C [36] was 21%.

Work on `Cn1nccc1Nc1nccc(-c2ccn(C(CO)c3ccc(Cl)c(F)c3)c(=O)c2)n1` (centres undefined) + COc1c(OCCCN2CCOCC2)ccc2c3n(c(=NC(=O)c4cnc(N)nc4)nc12)CCN3 yielded a pIC50 (second compound 0.00316 µM) of 5.48, a pIC50 (second compound 0.01 µM) of 5.95 and a pIC50 (second compound 0.0316 µM) of 6.18. The pIC50 (second compound 0.1 µM) was 6.39, the pIC50 (second compound 0.316 µM) was > 7.50 and the pIC50 (second compound 1 µM) was > 7.50. The viability, T/C [1] was 99.7%, the viability, T/C [2] was 94.4% and the viability, T/C [3] was 76.8%. The viability, T/C [4] was 67.7%, the viability, T/C [5] was 48.5% and the viability, T/C [6] was 40.7%. It also gave a viability, T/C [7] of 96.7%, a viability, T/C [8] of 102% and a viability, T/C [9] of 81.2%. The viability, T/C [10] was 49.8%, the viability, T/C [11] was 42.4% and the viability, T/C [12] was 28.8%. It also gave a viability, T/C [13] of 94.1%, a viability, T/C [14] of 92.8% and a viability, T/C [15] of 59.6%. For the same compound, the viability, T/C [16] was 42.2%, the viability, T/C [17] was 25.6% and the viability, T/C [18] was 10.7%. The viability, T/C [19] was 92.4%, the viability, T/C [20] was 83.8% and the viability, T/C [21] was 46.6%. For the same compound, the viability, T/C [22] was 37.5%, the viability, T/C [23] was 13.9% and the viability, T/C [24] was 0.2%. For the same compound, the viability, T/C [25] was 38%, the viability, T/C [26] was 38.6% and the viability, T/C [27] was 22.6%. It also gave a viability, T/C [28] of 13.2%, a viability, T/C [29] of 1.77% and a viability, T/C [30] of 0.14%. The viability, T/C [31] was 19.6%, the viability, T/C [32] was 11.4% and the viability, T/C [33] was 4.09%. For the same compound, the viability, T/C [34] was 0.93%, the viability, T/C [35] was 0.9% and the viability, T/C [36] was 0.16%.
